Data published in patent US9695155B2, “Herbicidal substituted pyrimidinyloxy benzene compounds” (E. I. DU PONT DE NEMOURS AND COMPANY, priority 2013, dated 2017).

Experiments:
[1] = test system: johnsongrass; assay: Test C preemergence; type: in vivo, Sorghum halepense
Source text: (§1) Seeds of plant species selected from blackgrass (Alopecurus myosuroides), Italian ryegrass (Lolium multiflorum), wheat, winter (winter wheat, Triticum aestivum), galium (catchweed bedstraw, Galium aparine), corn (Zea mays), large (Lg) crabgrass (Digitaria sanguinalis), giant foxtail (Setaria faberii), johnsongrass (Sorghum halepense), lambsquarters (Chenopodium album), morningglory (Ipomoea coccinea), yellow nutsedge (Cyperus esculentus), pigweed (Amaranthus retroflexus), ragweed (common ragweed, Ambrosia elatior), soybean (Glycine max), barnyardgrass (Echinochloa crus-galli), oilseed rape (Brassica napus), waterhemp (common waterhemp, Amaranthus rudis), kochia (Kochia scoparia), wild oat (Avena fatua), surinam grass (Brachiaria decumbens), foxtail, green (green foxtail, Setaria viridis), goosegrass (Eleusine indica), bromegrass, downy (downy bromegrass, Bromus tectorum), nightshade (eastern black nightshade, Solanum ptycanthum), cocklebur (common cocklebur, Xanthium strumarium), cupgrass, woolly (woolly cupgrass, Eriochloa villosa), bermudagrass (Cynodon dactylon), sunflower, (common oilseed sunflower, Helianthus annuus), Russian thistle (Salsola kali), and velvetleaf (Abutilon theophrasti) were planted into a blend of loam soil and sand and treated preemergence with test chemicals formulated in a non-phytotoxic solvent mixture which included a surfactant.
(§2) At the same time, plants selected from these crop and weed species and also barley, winter (winter barley, Hordeum vulgare), windgrass (Apera spica-venti), chickweed (common chickweed, Stellaria media), deadnettle (henbit deadnettle, Lamium amplexicaule), and canarygrass (littleseed canarygrass, Phalaris minor) were planted in pots containing Redi-Earth® planting medium (Scotts Company, 14111 Scottslawn Road, Marysville, Ohio 43041) comprising spaghnum peat moss, vermiculite, wetting agent and starter nutrients and treated with postemergence applications of test chemicals formulated in the same manner. Plants ranged in height from 2 to 18 cm (1- to 4-leaf stage) for postemergence treatments. Treated plants and controls were maintained in a greenhouse for 13 to 15 days, after which time all species were compared to controls and visually evaluated. Plant response ratings, summarized in Table C, are based on a scale of 0 to 100 where 0 is no effect and 100 is complete control. A dash (-) response means no test result.

[2] = test system: large (Lg) crabgrass; assay: Test A postemergence; type: in vivo, Digitaria sanguinalis; conditions: for pest or weed control at 125 g/ha / pest or weed control at 500 g/ha: Digitaria sanguinalis, post-emergence, 240 h; for pest or weed control at 125 g/ha: read-out: Plant response rating, Crabgrass, Large; for pest or weed control at 500 g/ha: read-out: Plant response rating Crabgrass, Large
Method in brief: (§3)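 Visual injury scored 0–100 (100 = complete control) against untreated controls about 10 days after treatment in a greenhouse. Test chemicals, formulated with surfactant in non-phytotoxic solvent, were sprayed on soil preemergence or on 2-10 cm, one- to two-leaf plants postemergence.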

[3] = test system: yellow nutsedge; assay: Test C preemergence; type: in vivo, Cyperus esculentus
Source text: as §1, §2

[4] = test system: galium; assay: Test C preemergence; type: in vivo, Galium aparine
Source text: as §1, §2

[5] = test system: giant foxtail; assay: Test C preemergence; type: in vivo, Setaria faberii
Source text: as §1, §2

[6] = test system: large (Lg) crabgrass; assay: Test C preemergence; type: in vivo, Digitaria sanguinalis
Source text: as §1, §2

[7] = test system: giant foxtail; assay: Test A preemergence; type: in vivo, Setaria faberii; conditions: for pest or weed control at 125 g/ha / pest or weed control at 500 g/ha: Setaria faberi, pre-emergence, 240 h
Method in brief: as §3

[8] = test system: lambsquarters; assay: Test C preemergence; type: in vivo, Chenopodium album
Source text: as §1, §2

[9] = 16 g ai/ha, preemergence, scale 0 to 100 (0 no effect, 100 complete control)
[10] = 125 g ai/ha, preemergence, scale 0 (no effect) to 100 (complete control)
[11] = Preemergence, 62 g ai/ha, scale 0 to 100, 0 no effect, 100 complete control
[12] = 125 g ai/ha, 0 to 100 scale where 0 is no effect and 100 is complete control
[13] = 500 g ai/ha, 0 to 100 scale where 0 is no effect and 100 is complete control
[14] = 500 g ai/ha, 0 to 100 scale, 0 no effect, 100 complete control
[15] = 500 g ai/ha, 0 to 100 scale, 0 no effect, 100 complete control, approx. 10 days, read-out: Foxtail, Giant plant response rating
[16] = 62 g ai/ha, preemergence, scale 0 (no effect) to 100 (complete control)
[17] = Preemergence, 31 g ai/ha, scale 0 to 100, 0 no effect, 100 complete control
[18] = 500 g ai/ha, 0 to 100 scale, 0 no effect, 100 complete control, approx. 10 days

`CCOc1cnn(-c2ccccc2Oc2ncc(Cl)cn2)c1` [Compound 187] was tested, and the “Johnsongrass plant response rating” value [1, 9] was 0, the “Johnsongrass plant response rating” value [1, 10] was 45 and the “Plant response rating, Johnsongrass” value [1, 11] was 30. The “Crabgrass, Large plant response rating” value [2, 12] was 60, the “Plant response rating, Crabgrass, Large” value [2, 13] was 100 and the “Nutsedge, Yellow plant response rating” value [3, 9] was 0. For the same compound, the “Nutsedge, Yellow plant response rating” value [3, 10] was 5, the “Plant response rating, Nutsedge, Yellow” value [3, 11] was 5 and the “Galium plant response rating” value [4, 9] was 30. For the same compound, the “Galium plant response rating” value [4, 10] was 98, the “Plant response rating, Galium” value [4, 11] was 90 and the “Foxtail, Giant plant response rating” value [5, 9] was 0. For the same compound, the “Foxtail, Giant plant response rating” value [5, 10] was 85, the “Plant response rating, Foxtail, Giant” value [5, 11] was 85 and the “Crabgrass, Large plant response rating” value [6, 9] was 5. The “Crabgrass, Large plant response rating” value [6, 10] was 100, the “Plant response rating, Crabgrass, Large” value [6, 11] was 100 and the “Foxtail, Giant plant response rating (0 to 100 scale)” value ([7]; 125 g ai/ha) was 100. The “Foxtail, Giant plant response rating” value [7, 13] was 100, the “Lambsquarters plant response rating” value [8, 9] was 5 and the “Lambsquarters plant response rating” value [8, 10] was 100. For the same compound, the “Plant response rating, Lambsquarters” value [8, 11] was 98.
`FC(F)(F)c1ccn(-c2ccccc2Oc2ncc(Cl)cn2)n1` [Compound 2, 5-chloro-2-[2-[3-(trifluoromethyl)-1H-pyrazol-1-yl]phenoxy]pyrimidine] gave a pest or weed control at 125 g/ha [2, 12] of 20%, a pest or weed control at 500 g/ha [2, 14] of 60% and a pest or weed control at 125 g/ha ([7]; 125 g ai/ha, 0 to 100 scale where 0 is no effect and 100 is complete control, read-out: Foxtail, Giant plant response rating) of 80%. For the same compound, the pest or weed control at 500 g/ha [7, 15] was 100%.
With `Fc1cnc(Oc2cccc(C(F)F)c2-n2cc(Br)cn2)nc1` [Compound 112] the “Johnsongrass plant response rating” value [1, 9] was 0, the “Johnsongrass plant response rating” value [1, 16] was 20 and the “Johnsongrass plant response rating” value [1, 10] was 40. The “Plant response rating, Johnsongrass” value [1, 17] was 5, the “Plant response rating, Crabgrass, Large” value [2, 12] was 60 and the “Plant response rating, Crabgrass, Large” value [2, 13] was 100. For the same compound, the “Nutsedge, Yellow plant response rating” value [3, 9] was 0, the “Nutsedge, Yellow plant response rating” value [3, 16] was 15 and the “Nutsedge, Yellow plant response rating” value [3, 10] was 40. The “Plant response rating, Nutsedge, Yellow” value [3, 17] was 5, the “Galium plant response rating” value [4, 9] was 55 and the “Galium plant response rating” value [4, 16] was 100. The “Galium plant response rating” value [4, 10] was 95, the “Plant response rating, Galium” value [4, 17] was 98 and the “Foxtail, Giant plant response rating” value [5, 9] was 15. The “Foxtail, Giant plant response rating” value [5, 16] was 100, the “Foxtail, Giant plant response rating” value [5, 10] was 100 and the “Plant response rating, Foxtail, Giant” value [5, 17] was 85. The “Crabgrass, Large plant response rating” value [6, 9] was 35, the “Crabgrass, Large plant response rating” value [6, 16] was 100 and the “Crabgrass, Large plant response rating” value [6, 10] was 100. For the same compound, the “Plant response rating, Crabgrass, Large” value [6, 17] was 100, the “Plant response rating, Foxtail, Giant” value [7, 12] was 100 and the “Foxtail, Giant plant response rating” value [7, 18] was 100. For the same compound, the “Lambsquarters plant response rating” value [8, 9] was 98, the “Lambsquarters plant response rating” value [8, 16] was 100 and the “Lambsquarters plant response rating” value [8, 10] was 98. The “Plant response rating, Lambsquarters” value [8, 17] was 100.
With `FC(F)(F)c1cnn(-c2ccccc2Oc2ncc(Br)cn2)c1` [Compound 18, 5-bromo-2-[2-[4-(trifluoromethyl)-1H-pyrazol-1-yl]phenoxy]pyrimidine] the pest or weed control at 62 g/ha ([1]; Sorghum halepense, pre-emergence, 62 g ai/ha, preemergence, scale 0 (no effect) to 100 (complete control), read-out: Johnsongrass plant response rating) was 30%, the pest or weed control at 125 g/ha ([1]; Sorghum halepense, pre-emergence, 125 g ai/ha, preemergence, scale 0 (no effect) to 100 (complete control), read-out: Johnsongrass plant response rating) was 80% and the pest or weed control at 250 g/ha ([1]; Sorghum halepense, pre-emergence, 250 g ai/ha, preemergence, scale 0 (no effect) to 100 (complete control), read-out: Johnsongrass plant response rating) was 98%. It also gave a pest or weed control at 31 g/ha ([1]; Sorghum halepense, pre-emergence, Preemergence, 31 g ai/ha, scale 0 to 100, 0 no effect, 100 complete control, read-out: Plant response rating, Johnsongrass) of 30%, a pest or weed control at 125 g/ha [2, 12] of 70% and a pest or weed control at 500 g/ha [2, 14] of 100%. For the same compound, the pest or weed control at 62 g/ha ([3]; Cyperus, pre-emergence, 62 g ai/ha, preemergence, scale 0 (no effect) to 100 (complete control), read-out: Nutsedge, Yellow plant response rating) was 15%, the pest or weed control at 125 g/ha ([3]; Cyperus, pre-emergence, 125 g ai/ha, preemergence, scale 0 (no effect) to 100 (complete control), read-out: Nutsedge, Yellow plant response rating) was 25% and the pest or weed control at 250 g/ha ([3]; Cyperus, pre-emergence, 250 g ai/ha, preemergence, scale 0 (no effect) to 100 (complete control), read-out: Nutsedge, Yellow plant response rating) was 35%. The pest or weed control at 31 g/ha ([3]; Cyperus, pre-emergence, Preemergence, 31 g ai/ha, scale 0 to 100, 0 no effect, 100 complete control, read-out: Plant response rating, Nutsedge, Yellow) was 10%, the pest or weed control at 62 g/ha ([4]; Galium, pre-emergence, 62 g ai/ha, preemergence, scale 0 (no effect) to 100 (complete control), read-out: Galium plant response rating) was 95% and the pest or weed control at 125 g/ha ([4]; Galium, pre-emergence, 125 g ai/ha, preemergence, scale 0 (no effect) to 100 (complete control), read-out: Galium plant response rating) was 100%. The pest or weed control at 250 g/ha ([4]; Galium, pre-emergence, 250 g ai/ha, preemergence, scale 0 (no effect) to 100 (complete control), read-out: Galium plant response rating) was 100%, the pest or weed control at 31 g/ha ([4]; Galium, pre-emergence, Preemergence, 31 g ai/ha, scale 0 to 100, 0 no effect, 100 complete control, read-out: Plant response rating, Galium) was 90% and the pest or weed control at 62 g/ha ([5]; Setaria faberi, pre-emergence, 62 g ai/ha, preemergence, scale 0 (no effect) to 100 (complete control), read-out: Foxtail, Giant plant response rating) was 100%. It also gave a pest or weed control at 125 g/ha ([5]; Setaria faberi, pre-emergence, 125 g ai/ha, preemergence, scale 0 (no effect) to 100 (complete control), read-out: Foxtail, Giant plant response rating) of 100%, a pest or weed control at 250 g/ha ([5]; Setaria faberi, pre-emergence, 250 g ai/ha, preemergence, scale 0 (no effect) to 100 (complete control), read-out: Foxtail, Giant plant response rating) of 100% and a pest or weed control at 31 g/ha ([5]; Setaria faberi, pre-emergence, Preemergence, 31 g ai/ha, scale 0 to 100, 0 no effect, 100 complete control, read-out: Plant response rating, Foxtail, Giant) of 65%. For the same compound, the pest or weed control at 62 g/ha ([6]; Digitaria sanguinalis, pre-emergence, 62 g ai/ha, preemergence, scale 0 (no effect) to 100 (complete control), read-out: Crabgrass, Large plant response rating) was 100%, the pest or weed control at 125 g/ha ([6]; Digitaria sanguinalis, pre-emergence, 125 g ai/ha, preemergence, scale 0 (no effect) to 100 (complete control), read-out: Crabgrass, Large plant response rating) was 100% and the pest or weed control at 250 g/ha ([6]; Digitaria sanguinalis, pre-emergence, 250 g ai/ha, preemergence, scale 0 (no effect) to 100 (complete control), read-out: Crabgrass, Large plant response rating) was 100%. It also gave a pest or weed control at 31 g/ha ([6]; Digitaria sanguinalis, pre-emergence, Preemergence, 31 g ai/ha, scale 0 to 100, 0 no effect, 100 complete control, read-out: Plant response rating, Crabgrass, Large) of 75%, a pest or weed control at 125 g/ha ([7]; 125 g ai/ha, 0 to 100 scale where 0 is no effect and 100 is complete control, read-out: Plant response rating, Foxtail, Giant) of 100% and a pest or weed control at 500 g/ha [7, 15] of 100%. For the same compound, the pest or weed control at 62 g/ha ([8]; Chenopodium album, pre-emergence, 62 g ai/ha, preemergence, scale 0 (no effect) to 100 (complete control), read-out: Lambsquarters plant response rating) was 50%, the pest or weed control at 125 g/ha ([8]; Chenopodium album, pre-emergence, 125 g ai/ha, preemergence, scale 0 (no effect) to 100 (complete control), read-out: Lambsquarters plant response rating) was 65% and the pest or weed control at 250 g/ha ([8]; Chenopodium album, pre-emergence, 250 g ai/ha, preemergence, scale 0 (no effect) to 100 (complete control), read-out: Lambsquarters plant response rating) was 80%. It also gave a pest or weed control at 31 g/ha ([8]; Chenopodium album, pre-emergence, Preemergence, 31 g ai/ha, scale 0 to 100, 0 no effect, 100 complete control, read-out: Plant response rating, Lambsquarters) of 30%.
With `Clc1cnc(Oc2ccccc2-n2cc(Cl)cn2)nc1` [Compound 3] the “Plant response rating, Crabgrass, Large” value [2, 12] was 10, the “Plant response rating, Crabgrass, Large” value [2, 14] was 80 and the “Foxtail, Giant plant response rating” value [7, 12] was 90. For the same compound, the “Foxtail, Giant plant response rating” value [7, 18] was 100.
